Blank lines part the entries; values can stand above or below the molecule they belong to. Ends that are not written are not given here.
Legend:
C3a receptor = C3a receptor (Homo sapiens, UniProt Q16581); experiment: xCELLigence, antagonism of peptide-evoked response by C3a receptor antagonist SB 290157 in HMDM; format: cell-based; settings: n=3–5
Protocol: (§1) HMDM were seeded overnight at 30,000 cells/well in 384-well E-Plates (Roche). Approximately 24 h later, HMDM media were exchanged for serum-free IMDM and equilibrated at 37 °C and 5% CO2 for 2 h prior to ligand addition. Ligands were prepared at a final DMSO concentration of 0.5% (or less) in serum-free IMDM. […] After agonist addition, measurements were taken continuously for ~1.5 h at 37 °C. The RTCA software was used for data analysis, with statistical analysis using GraphPad Prism 5.0c (GraphPAD Software Inc., San Diego, CA).

[1] = biological target: T1, human monocyte-derived macrophages (HMDM) (Homo sapiens, UniProt Q16581); experiment: xCELLigence cell impedance assay, agonist activity on HMDM; format: cell-based; settings: for EC50: xCELLigence impedance, dose-response, serum-free IMDM, 37 °C, n=3–5; for response in initial single dose screen: single dose of 8 μM, n=4–6, hit = P<0.001; for xCELLigence response profile: C3a and C5a at 100 nM
T1 sequence (Q16581 1-482): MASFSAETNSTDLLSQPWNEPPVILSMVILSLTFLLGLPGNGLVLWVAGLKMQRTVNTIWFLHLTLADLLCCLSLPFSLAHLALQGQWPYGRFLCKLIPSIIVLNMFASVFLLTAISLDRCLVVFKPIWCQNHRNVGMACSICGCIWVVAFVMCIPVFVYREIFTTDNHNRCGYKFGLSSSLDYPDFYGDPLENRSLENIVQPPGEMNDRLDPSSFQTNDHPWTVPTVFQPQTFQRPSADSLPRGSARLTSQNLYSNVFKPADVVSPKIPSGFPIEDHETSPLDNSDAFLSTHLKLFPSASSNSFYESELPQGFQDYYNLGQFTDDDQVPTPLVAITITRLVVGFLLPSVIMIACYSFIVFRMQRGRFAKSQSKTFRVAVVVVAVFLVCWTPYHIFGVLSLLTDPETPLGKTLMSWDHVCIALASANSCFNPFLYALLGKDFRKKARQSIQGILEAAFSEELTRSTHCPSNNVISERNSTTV
Protocol: Human monocytes were isolated from blood donations to the Australian Red Cross Blood Service (Kelvin Grove, Queensland). The isolation of mononuclear cells was as described previously by [Halai and Cooper (2012)]. Briefly, the mononuclear cell layer was separated using density gradient centrifugation with Ficoll-Paque Plus (GE Healthcare). MACS magnetic beads (Miltenyi Biotec) were incubated with the cells for 15 min at 4 °C before passing through an LS column (Miltenyi Biotec) to select for the CD14+ cells. Selected monocytes were plated at a density of 1.5×10^7 in Iscove׳s Modified Dulbecco׳s Medium (IMDM) (Invitrogen Life Technologies) containing L-glutamine supplemented with 10% Fetal Bovine Serum (FBS), 50 IU/ml penicillin and 50 μg/ml streptomycin. Human macrophage colony-stimulating factor (M-CSF) (Peprotech) was added to media to allow cells to differentiate into human monocyte-derived macrophages (HMDM). Over the 7 day differentiation process, cells were incubated at 37 °C and 5% CO2.
as §1

human C3a receptor = biological target: T2, human C3a receptor (Homo sapiens, UniProt Q16581); experiment: RBL-2H3 degranulation assay (β-hexosaminidase), agonist, human C3a receptor; format: cell-based; settings: RBL-2H3 transfected with human C3a receptor, 100 µM peptide (Fig. 3 legend: 50 μM), 15 min, β-hexosaminidase secretion, relative to FLPLAR
T2 construct: expressed in transfected cells; host or cells: RBL-2H3 (rat basophilic leukemia) cells
T2 sequence (Q16581 1-482): T1 sequence (Q16581 1-482)
Protocol: RBL-2H3 cells transfected with either human C5a1 or human C3a receptor ([Cain and Monk, 2002]) were routinely cultured in Dulbecco׳s Modified Eagle׳s Medium, 10% (v/v) fetal calf serum, and 400 mg/l G-418 at 37 °C in 5% CO2. Degranulation was measured by assaying for β-hexosaminidase activity in the cell supernatant, as described previously ([Monk et al., 1994]). In agonist assays, degranulation was calculated as a percentage of maximal activity in response to 200 nM recombinant human C3a, human C5a ([Cain and Monk, 2002]), or 10 nM agonist hexapeptide, FLPLAR ([Scully et al., 2010]). […]
RBL-2H3 cells transfected with either human C5a1 or human C3a receptor ([Cain and Monk, 2002]) were used to confirm hits detected in HMDM, using degranulation as a read-out ([Monk et al., 1994]). In cells transfected with C5a1, very weak agonist activity was detected in two groups of peptides, although even at 100 µM (the maximal dose achievable in the presence of the DMSO, which has adverse effects >1%), the activation obtained was 5–10% of the maximum activation achieved by a high dose of C5a (Fig. 3, top panel). […]
Fig. 3 Agonist activity of peptides at human C5a1 and C3a receptors expressed in rat basophilic leukemia cells (RBL-2H3). […] Degranulation was measured as the secretion of β-hexosaminidase. […]

C5a receptors = settings: ref Taylor and Fairlie, 2005; cited from earlier work
Source text: C3a receptor/C5a1 promiscuity is not unusual and has been previously observed for whole C3a and a synthetic peptide agonist ([Ames et al., 1996]) and a chimeric C5a with the C3a C-terminal pentapeptide ([Bautsch et al., 1992]). In fact, early efforts to create potent and selective antagonists of C5a1 led to only partial agonists ([Taylor and Fairlie, 2005]).

IC50 (C3a receptor; agonist peptide 20 at about its EC50, antagonist pre-incubated 1 h): 1.3 nM
IC50 (C3a receptor; agonist peptide 31 at about its EC50, antagonist pre-incubated 1 h): 67 nM
IC50 (C3a receptor; agonist peptide 47 at about its EC50, antagonist pre-incubated 1 h): 44 nM
IC50 (C3a receptor; agonist peptide 49 at about its EC50, antagonist pre-incubated 1 h): 15 nM
IC50 (C3a receptor; agonist peptide 54 at about its EC50, antagonist pre-incubated 1 h): 29 nM
Molecule: N=C(N)NCCC[C@H](NC(=O)COCC(c1ccccc1)c1ccccc1)C(=O)O [SB 290157]

Molecule: Ac-NNYNLWR-OH [Peptide 20, Ac-NNYNLWR]
EC50 [1]: 5800 nM
response in initial single dose screen ([1]; xCELLigence): significant hits

Molecule: Ac-RHYPLWR-OH [Peptide 31, Ac-RHYPLWR]
EC50 [1]: 1100 nM
response in initial single dose screen ([1]; xCELLigence): significant hits
activation of C3a receptor (degranulation) (human C3a receptor): very strong activation

Molecule: Ac-RLYPLWR-OH [Peptide 47, Ac-RLYPLWR]
EC50 [1]: 1200 nM
response in initial single dose screen ([1]; xCELLigence): significant hits

Molecule: Ac-RYPLWR-OH [Peptide 54, Ac-RYPLWR]
EC50 [1]: 3000 nM
response in initial single dose screen ([1]; xCELLigence): significant hits
activation of C3a receptor (degranulation) (human C3a receptor): very strong activation

Molecule: Ac-TIYRLWR [Peptide 49, Ac-TIYRLWR]
EC50 [1]: 17000 nM

response in initial single dose screen ([1]; xCELLigence): significant hits
Molecule: Ac-TLLRLWR [Peptide 48]
outcome of full dose range retest ([1]; xCELLigence, full dose range): a full dose response could not be obtained

Molecule: AcPhe[Lornithine-Pro-D-cyclohexylalanine-Trp-Arg] (sidechain bridge or staple) [PMX53, cyclic C5a1 antagonist]
receptor affinity (C5a receptors): low nanomolar range

xCELLigence response profile [1]: single peak profile
cell index (intensity of the signal) ([1]; xCELLigence): 1.98
time of signal peak after addition ([1]; xCELLigence): ~ 1 min
Molecule: C3a: complement fragment C3a, 77-residue protein, recombinant human [Peptide C3a]

xCELLigence response profile [1]: two-peak profile
cell index (intensity of the signal) ([1]; xCELLigence): 4.53
time of signal peak after addition ([1]; xCELLigence): ~ 4 min
B1: C5a: complement fragment C5a, 74-residue protein, human (protein, UniProt P01031 678-751, looked up)
C5a anaphylatoxin: TLQKKIEEIAAKYKHSVVKKCCYDGACVNNDETCEQRAARISLGPRCIKAFTECCVVASQLRANISHKDMQLGR
modifications: C5a anaphylatoxin
notes: complement fragment C5a, 74-residue protein, human
